Laboratory results reported in patent US20260373101A1, “POLYAMINATED FATTY ACIDS FOR USE AS POTENTIATORS OF ANTIBACTERIAL ACTIVITY” (priority 2023, published 2026).
≈ marks a conversion by molar mass, not a printed value.

How the values were obtained:
Format in all cases: cell-based
[1] = tested on: P. aeruginosa ATCC27853; assay: Antibacterial activity in combination with doxycycline; settings: Pseudomonas aeruginosa, 24 h
Description: (§1) 100 μl of a liquid culture medium is deposited in each well of a 96-well microplate, and then inoculated with the bacterial suspension of example 2.1 prepared for the positive control. The volume needed to inoculate is calculated for an OD of 0.01 which corresponds to approximately 5,106 bacteria in each well. In this plate, the first row corresponds to a negative control (200 μl of sterile culture medium in each well), the second row to a positive control (100 μl of sterile culture medium with 100 μl of the bacterial suspension), the third row contains 192 μl of culture medium and 8 μl of polyaminated fatty acid compound to be tested in each well. Subsequently, a cascade dilution is performed from this line. Next, 3-8 μl of a doxycycline solution (1 mg dissolved in 20 ml) is added to each well of the lines to obtain a final antibiotic concentration of 2 μg/ml. Then, 92 μl of bacterial suspension is added to lines 3 to 8. The MIC with a concentration of doxycycline of 2 μg/ml in the presence of X μg/ml of polyaminated fatty acid compound is determined after 24 hours of incubation at 37 °C in a humid atmosphere.
The table 2 below reports the antibacterial activity (MIC in μM) of a combination of some polyaminated fatty acids prepared in example 1 with two antibacterial drugs doxycycline and erythromycin. […] On the Gram-negative strain of E. coli ([…]), erythromycin has a MIC of 50 μg/ml.

[2] = tested on: P. aeruginosa PA01; assay: Potentiation of known antibiotics (MIC of antibiotic alone or with PAFA); settings: Pseudomonas aeruginosa, PA01, 24 h
Description: (§2) 100 μl of a liquid culture medium is deposited in each well of a 96-well microplate, and then inoculated with the bacterial suspension of example 2.1 prepared for the positive control. The volume needed to inoculate is calculated for an OD of 0.01 which corresponds to approximately 5,106 bacteria in each well. In this plate, the first row corresponds to a negative control (200 μl of sterile culture medium in each well), the second row to a positive control (100 μl of sterile culture medium with 100 μl of the bacterial suspension), the third row contains 192 μl of culture medium and 8 μl of an antibiotic solution (10 mg/ml) to be tested in each well. Subsequently, a cascade dilution is performed from this line. Next, 10 μl of a fatty acid solution (10 μM final concentration) is added to each well of the lines. Then, 90 μl of bacterial suspension is added to lines 3 to 8. The MIC of the antibiotic tested is determined after 24 hours of incubation at 37 °C in a humid atmosphere.
(§3) The table 3 below reports the antibacterial activity (MIC in μg/mL) of a combination of some polyaminated fatty acids prepared in example 1 with various antibacterial drugs: doxycycline (DOX), tetracycline (TET), oxytetracycline (OXY) and minocycline (MINO), against various bacterial strains of P. aeruginosa (PA01, PA0509, and PA263), and of E. coli (AG-100 and AG-100A).

[3] = tested on: E. coli AG-100A; assay: as above; settings: Escherichia coli, AG100A, 24 h
Description: as §2, §3

[4] = tested on: E. coli AG-100; assay: as above; settings: Escherichia coli, AG100, 24 h
Description: as §2, §3

[5] = tested on: P. aeruginosa PA0509; assay: as above; settings: Pseudomonas aeruginosa, PA0509, 24 h
Description: as §2, §3

[6] = tested on: P. aeruginosa PA263; assay: as above; settings: Pseudomonas aeruginosa, PA263, 24 h, 24 h
Description: as §2, §3

[7] = tested on: P. aeruginosa ATCC27853; assay: Intrinsic antibacterial activity, standard microdilution (CLSI); settings: Pseudomonas aeruginosa; P. aeruginosa ATCC27853, compound alone, 24 h, 37 °C
Description: (§4) The bacterial strains used in the examples below are the reference strains P. aeruginosa ATCC27853, E. coli ATCC25922, K. pneumoniae ATCC51296, S. aureus ATCC25923 and E. faecalis ATCC29212. The bacterial strains were previously stored in 15% (v/v) glycerol at −80 °C for cryoprotection. One colony of the fresh culture of each strain was incubated in a culture tube containing 3 ml of Mueller-Hinton broth (MH2) at 37 °C overnight with agitation. This suspension was used for inoculum preparation.
(§5) The antibacterial activity of said polyaminated fatty acid compounds was measured using a standard microdilution test based on Clinical and Laboratory Standards Institute (CLSI) guidelines. This method was slightly modified by increasing the assay volumes to 200 μl so as to improve reproducibility.
(§6) A negative control which corresponds to 2 ml of sterile culture medium and a positive control which corresponds to a mixture of 1980 μl of culture medium and 20 μl of bacterial suspension from a thawed biological strain (biological strains are stored at −80 °C in glycerol) were prepared.
(§7) The tubes were incubated in an incubator shaker “Infors” at 37 °C for 24 hours at 100 round per minute (rpm).
(§8) The polyaminated fatty acid compounds to be tested were prepared in water at a concentration of 10 mM.
(§9) The required volume of the microbial suspension to be inoculated was calculated for an optical density (OD) measured corresponding to a value equal to 0.01 in each well by using a spectrophotometer at 600 nm. In the microplate, the first row corresponded to the negative control (200 μl of sterile culture medium in each well), the second row to the positive control (seeded culture medium), the third row was loaded twice with bacterial suspension and with 8 μl of a given polyaminated fatty acid compound in each well. Subsequently, a half-fold cascade dilution was performed from this line. The first column was used as an inhibition control. A sterile filter was then placed on the microplate allowing the passage of gases but not contaminants. The microplate was incubated at 37 °C in a humid atmosphere for 24 hours. After 24 hours of incubation, an optical density measurement was performed by taking 100 μl of the bacterial suspension diluted in 900 μl of sterile culture medium.
(§10) The medium used was Mueller-Hinton medium (MH) for bacteria. All tests were performed in duplicate.
(§11) Table 1 below reports the intrinsic antibacterial activity of some polymaminated fatty acids prepared in example 1 (MIC in μM) as well as their toxicity towards eucaryotic cells (IC50 in μM).

[8] = tested on: E. faecalis ATCC29212; assay: as above; settings: Enterococcus faecalis; E. faecalis ATCC29212, compound alone, 24 h, 37 °C
Description: as §4, §5, §6, §7, §8, §9, §10, §11

[9] = tested on: S. aureus ATCC25923; assay: as above; settings: Staphylococcus aureus; S. aureus ATCC25923, compound alone, 24 h, 37 °C
Description: as §4, §5, §6, §7, §8, §9, §10, §11

[10] = tested on: E. coli ATCC28922; assay: as above; settings: Escherichia coli, ATCC28922, 24 h
[11] = tested on: Chinese hamster ovary cells (CHO-K1); assay: Toxicity on mammalian cells, WST1 assay; settings: Cricetulus griseus; CHO-K1 cell viability, WST1, 24 h
Description: The WST1 assay was used to measure the cytotoxic activity of the polyaminated fatty acid compounds. It is a colorimetric assay that measures viability and cell proliferation rate. It is based on the cleavage of colorless tetrazolium salts WST-1 (4-[3-(4-iodophenyl)-2-(4-nitrophenyl)-2H-5-tetrazolio]-1,3-benzene disulfonate) by mitochondrial dehydrogenases into yellow formazan derivative, quantifiable by spectrophotometry at 420-480 nm.
The WST1 assay was performed on Chinese hamster ovary cells. CHO-K1 cells (ATCC, USA) were maintained in culture in “Mac Coy's 5A” medium supplemented with 10% fetal calf serum, 2 mM L-glutamine and streptomycin penicillin mixture (100 U/ml: 10 μg/ml). Incubation is carried out at 37 °C under CO2 enriched atmosphere (5% by volume) and subcultured every two days.
Cells are transferred to 96-well plates (25,000 cells/ml) in complete “Mac Coy's 5A medium”, and maintained for 24 h at 37 °C under a humid CO2-enriched atmosphere (5% by volume). Increasing concentrations of given polyaminated fatty acid compounds are added to the wells in duplicate assays and 8 growth controls containing cells in medium alone are included in each assay run. After 24 hours at 37 °C (5% CO2), the culture medium is removed, the cells are rinsed in phosphate buffer (PBS) and 50 μL of PBS containing 10% WST1 reagent is added to each well. After 20 minutes of incubation at 37 °C, the results are read by spectrophotometry at 450 nm.
The results are expressed as dose-response relationships, modeled by a non-linear regression analysis using TableCurve software. The 50% Inhibitory Concentration (IC50) represents the concentration of polyaminated fatty acid compound capable of reducing cell viability by 50%.

[12] = tested on: E. coli ATCC28922; assay: Antibacterial activity in combination with erythromycin; settings: Escherichia coli, ATCC28922, 24 h
Description: as §1
The table 2 below reports the antibacterial activity (MIC in μM) of a combination of some polyaminated fatty acids prepared in example 1 with two antibacterial drugs doxycycline and erythromycin. […]

[13] = P. aeruginosa ATCC27853 + Doxycycline (2 μg/ml)

C[C@H]1c2cccc(O)c2C(=O)C2=C(O)[C@]3(O)C(=O)C(C(N)=O)=C(O)[C@@H](N(C)C)[C@@H]3[C@@H](O)[C@@H]21 [DOX, doxycycline]
MIC ([1]; antibiotic alone, P. aeruginosa ATCC27853): 32 µg/mL | MIC ([2]; MIC of antibiotic, PA01, +PAFA10 (10 μM)): 2 µg/mL | MIC ([2]; MIC of antibiotic, PA01, +PAFA11 (10 μM)): 2 µg/mL | MIC ([2]; MIC of antibiotic, PA01, +PAFA14 (10 μM)): 0.125 µg/mL | MIC ([2]; PA01, Antibiotic alone): 32 µg/mL | MIC ([3]; Antibiotic alone): 0.5 µg/mL | MIC ([3]; MIC of antibiotic, +PAFA10 (10 μM)): 0.25 µg/mL | MIC ([3]; MIC of antibiotic, +PAFA11 (10 μM)): 0.25 µg/mL | MIC ([3]; MIC of antibiotic, +PAFA14 (10 μM)): 0.008 µg/mL | MIC ([4]; AG-100, Antibiotic alone): 1 µg/mL | MIC ([4]; MIC of antibiotic, AG-100, +PAFA10 (10 μM)): 0.25 µg/mL | MIC ([4]; MIC of antibiotic, AG-100, +PAFA11 (10 μM)): 0.25 µg/mL | MIC ([4]; MIC of antibiotic, AG-100, +PAFA14 (10 μM)): 0.008 µg/mL | MIC [5]: 1 µg/mL | MIC ([5]; MIC of antibiotic, PA0509, +PAFA10 (10 μM), 24 h): 0.25 µg/mL | MIC ([5]; MIC of antibiotic, PA0509, +PAFA11 (10 μM), 24 h): 0.25 µg/mL | MIC ([5]; MIC of antibiotic, PA0509, +PAFA14 (10 μM), 24 h): 0.125 µg/mL | MIC ([6]; MIC of antibiotic, PA263, +PAFA10 (10 μM)): 8 µg/mL | MIC ([6]; MIC of antibiotic, PA263, +PAFA11 (10 μM)): 4 µg/mL | MIC ([6]; MIC of antibiotic, PA263, +PAFA14 (10 μM)): 1 µg/mL | MIC ([6]; PA263, Antibiotic alone): 32 µg/mL

CCCCC/C=C\C/C=C\CCCCCCCC(=O)NCCCCN [PAFA8]
MIC [7]: > 200 µM | MIC [8]: > 200 µM | MIC [9]: 200 µM (≈ 70.1 µg/mL) | MIC [10]: > 200 µM

CCCCC/C=C\C/C=C\CCCCCCCC(=O)NCCCN(C)CCCN [PAFA9]
MIC [7]: 200 µM (≈ 81.5 µg/mL) | MIC [8]: 50 µM (≈ 20.4 µg/mL) | MIC [9]: 50 µM (≈ 20.4 µg/mL) | IC50 [11]: 84 µM | MIC [10]: 25 µM (≈ 10.2 µg/mL) | MIC [1, 13]: 25 µM

CCCCC/C=C\C/C=C\CCCCCCCC(=O)NCCCN(CCCN)CCCN [PAFA10]
MIC [7]: 25 µM (≈ 11.3 µg/mL) | MIC [8]: 25 µM (≈ 11.3 µg/mL) | MIC [9]: 25 µM (≈ 11.3 µg/mL) | IC50 [11]: 79 µM | MIC [10]: > 200 µM | MIC [1, 13]: 12.5 µM

CCCCC/C=C\C/C=C\CCCCCCCC(=O)NCCCNCCCN [PAFA11]
MIC [7]: 25 µM (≈ 9.84 µg/mL) | MIC [8]: 12.5 µM (≈ 4.92 µg/mL) | MIC [9]: 12.5 µM (≈ 4.92 µg/mL) | IC50 [11]: 21 µM | MIC [10]: 100 µM (≈ 39.4 µg/mL) | MIC [1, 13]: 12.5 µM

CCCCC/C=C\C/C=C\CCCCCCCC(=O)NCCNCCNCCN [PAFA12]
MIC [7]: 100 µM (≈ 40.9 µg/mL) | MIC [8]: 100 µM (≈ 40.9 µg/mL) | MIC [9]: 200 µM (≈ 81.7 µg/mL) | IC50 [11]: 166 µM | MIC [10]: 50 µM (≈ 20.4 µg/mL) | MIC [1, 13]: 50 µM

CCCCC/C=C\C/C=C\CCCCCCCC(=O)NCCCNCCCCNCCCN [PAFA14]
MIC [7]: 100 µM (≈ 46.5 µg/mL) | MIC [8]: 12.5 µM (≈ 5.81 µg/mL) | MIC [9]: 12.5 µM (≈ 5.81 µg/mL) | IC50 [11]: 98 µM | MIC [10]: 25 µM (≈ 11.6 µg/mL) | MIC [1, 13]: 6.25 µM

CC[C@H]1OC(=O)[C@H](C)[C@@H](O[C@H]2C[C@@](C)(OC)[C@@H](O)[C@H](C)O2)[C@H](C)[C@@H](O[C@@H]2O[C@H](C)C[C@H](N(C)C)[C@H]2O)[C@](C)(O)C[C@@H](C)C(=O)[C@H](C)[C@@H](O)[C@]1(C)O [erythromycin]
MIC [12]: 50 µg/mL
